# Experiments:
# [1] = system: CPA primary culture no. 2; experiment: Steroid profile by LC/MS-MS in CPA primary culture no. 2; format: cell-based, human; conditions: for 11-DOC absolute change vs control / 11-DOC percentage change vs control / 17-OHP absolute change vs control / 17-OHP percentage change vs control / Androstenedione absolute change vs control / Androstenedione percentage change vs control / Corticosterone absolute change vs control / Corticosterone percentage change vs control / Cortisol absolute change vs control / Cortisol percentage change vs control / DHEA absolute change vs control / DHEAS absolute change vs control / Prog absolute change vs control / Prog percentage change vs control / Testosterone absolute change vs control / Testosterone percentage change vs control: CPA no. 2, Basal, 3 days
# Procedure: To obtain primary cultures, adrenal specimens (adrenocortical adenomas, adrenal hyperplasias and adrenocortical carcinomas) were collected after adrenalectomy at the department of Surgery, Erasmus University Medical Center, Rotterdam, the Netherlands, between April 2016 and May 2018. The study was conducted under guidelines that have been approved by the Medical Ethics Committee of the Erasmus Medical Center and informed consent was obtained from all patients. Immediately after surgery, specimens were minced into small pieces of 2-3 mm^3, washed in culture medium and centrifuged for 5 minutes at 600 g. The tissue was stored overnight in culture medium at 4° C., where after the tissue was centrifuged again and the supernatant was removed. Fragments were dissociated using 10-25 ml collagenase type 1 (2 mg/ml: Sigma-Aldrich), followed by incubation at 37° C. for up to two hours. Ficoll (GE healthcare) density gradient separation was used once or twice as required in order to separate contaminating red blood cells from the tumor cells. Cell viability and cell amount were counted by trypan blue exclusion. Dissociated cells were plated at a density of 10^5 cells per well. ACTH-secreting corticotroph pituitary adenoma tissue from patients with Cushing's disease (n=2) was available after transsphenoidal surgery. Single-cell suspensions of the pituitary adenoma tissues were prepared as previously described in detail.
# Primary culture conditions for primary cultures were similar as described in the section ‘cell culture and compounds’, but with small adjustments: ACTH was used at a concentration of 85 pM (250 pg/mL), treatment was started 3-4 days after plating of the cells and cells were incubated for 3 days, and; for pituitary primary cultures, levoketoconazole and racemic ketoconazole were only tested at a concentration of 1 μM. Owing to a limited number of cells obtained from the specimens, not all experiments were carried out in every primary culture.
# (§1) Cortisol concentrations were measured in the supernatant using a chemiluminescence immunoassay system (Immulite 2000XPi; Siemens DPC Inc., Los Angeles, Calif., USA). In addition, we carried out multi-steroid analysis by liquid chromatography/mass spectrometry (LC/MS-MS) to accurately quantify androstenedione, corticosterone, cortisol, 11-deoxycortisol, DHEA, DHEAS, progesterone, 17-hydroxyprogesterone, and testosterone. Concentrations that were tested on the LC/MS-MS were closest to 50% inhibition or maximal inhibition of cortisol as determined by the immunoassay. Steroids were quantified with respect to a calibration series, with internal standards. Steroids were quantified on a Xevo TQS LC-MS/MS (Waters Chromatography).
# Statistical analysis was performed using Graphpad Prism 6.0 (Graphpad Software, San Diego, CA). Non-linear regression curve fitting program was used to calculate the half maximal inhibitory concentrations (IC50) on cortisol production. Effects of both compounds on the steroid profile were measured as absolute change compared to control and compared using the Student's t-test. When assessing differences between effects of both compounds, the percentage change was evaluated and compared in order to correct for differences in the vehicle treated control cells. Values of P<0.05 were considered statistically significant and data are presented as mean SEM.
# [2] = system: HAC15 cells; experiment: Cortisol production by HAC15 cells (immunoassay); format: cell-based, Human; conditions: HAC15, after 3 days of treatment (FIG. 1B)
# Procedure: Human adrenocortical carcinoma HAC15 and mouse corticotroph AtT20 cells were used, purchased as a kind gift by Dr. W. Rainey, and obtained from Dr. J. Tooze (European Organization for Molecular Biology), respectively. Both cell lines were cultured in 75 cm^2 flasks at 37° C. in a humidified incubator (Greiner Bio-One, Alphen a/d Rijn, the Netherlands) at 5% CO2. Dulbecco's Modified Eagle Medium F12 containing 5% fetal calf serum was used for HAC15, whereas AtT20 cells were cultured in Dulbecco's minimal essential medium (DMEM) supplemented with 10% fetal calf serum. Both mediums were supplemented with L-glutamine (2 mmol/L) and penicillin (10^5 U/L). Short tandem repeat (str) profiling using a Powerplex Kit (Promega, Leiden, the Netherlands) of HAC15 and AtT20 gave results consistent with the ATCC database, confirming the identity of both cell lines. Medium and supplements were obtained from Invitrogen, Breda, the Netherlands. Once a week, cells were harvested with trypsin (0.05%)-EDTA (0.53 mM) and resuspended in culture medium. Levoketoconazole (COR-003) and racemic ketoconazole (both from Cortendo AB) were dissolved in absolute ethanol (EtOH), according to manufacturer's instructions, and stored at −20° C. at a stock concentration of […]. At the start of each experiment, both drugs were freshly prepared and diluted in EtOH in the correct concentrations. Synacten (synthetic ACTH, Novartis Pharma A.G.) stock concentration was stored at 4° C. and dissolved in culture medium at the day of use. The final concentrations of ACTH were chosen based on a dose-response curve in HAC15 cells and previously reported studies in the literature. For HAC15, 200,000 and 100,000 cells were plated in 0.5 ml medium in 24 well plates for experiments of 1 and 3 days, respectively. […]
# as §1, with “Concentrations that were tested on the LC/MS-MS were closest to 50% inhibition or maximal inhibition of cortisol as determined by the immunoassay.” left out
# Statistical analysis was performed using Graphpad Prism 6.0 (Graphpad Software, San Diego, CA). […] Effects of both compounds on the steroid profile were measured as absolute change compared to control and compared using the Student's t-test. When assessing differences between effects of both compounds, the percentage change was evaluated and compared in order to correct for differences in the vehicle treated control cells. […]
smiles,measurement,setting,value
"CC(=O)N1CCN(c2ccc(OCC3COC(Cn4ccnc4)(c4ccc(Cl)cc4Cl)O3)cc2)CC1 (racemic) [racemic ketoconazole, Ketoconazole]",11-DOC absolute change vs control,[1]; 0.1 μM,+6.400 nmol/l
same,11-DOC percentage change vs control,[1]; 0.1 μM,(+2.4%)
same,17-OHP absolute change vs control,[1]; 0.1 μM,-0.4750 nmol/L
same,17-OHP percentage change vs control,[1]; 0.1 μM,(−2.4%)
same,Androstenedione absolute change vs control,[1]; 0.1 μM,-32.85 nmol/L
same,Androstenedione percentage change vs control,[1]; 0.1 μM,−66%
same,Corticosterone absolute change vs control,[1]; 0.1 μM,+175.8 nmol/l
same,Corticosterone percentage change vs control,[1]; 0.1 μM,+213%
same,Cortisol absolute change vs control,[1]; 0.1 μM,-92.95 nmol/L
same,Cortisol percentage change vs control,[1]; 0.1 μM,−14%
same,DHEA absolute change vs control,[1]; 0.1 μM,<LLQ
same,DHEAS absolute change vs control,[1]; 0.1 μM,<LLQ
same,Prog absolute change vs control,[1]; 0.1 μM,+0.5167 nmol/l
same,Prog percentage change vs control,[1]; 0.1 μM,(+36%)
same,Testosterone absolute change vs control,[1]; 0.1 μM,-0.3250 nmol/L
same,Testosterone percentage change vs control,[1]; 0.1 μM,(−57%)
same,Androstenedione percentage change vs control,"[1]; 0.1 μM, listed as RK",(−66%*)
same,Corticosterone percentage change vs control,"[1]; 0.1 μM, listed as RK",(+213%****)
same,Cortisol percentage change vs control,"[1]; 0.1 μM, listed as RK",(−14%**)
same,11-DOC absolute change vs control,[1]; 0.5 μM,-37.70 nmol/L
same,11-DOC percentage change vs control,[1]; 0.5 μM,(−14%***)
same,17-OHP absolute change vs control,[1]; 0.5 μM,+11.45 ± 1 nmol/l
same,17-OHP percentage change vs control,[1]; 0.5 μM,(+58%*)
same,Androstenedione absolute change vs control,[1]; 0.5 μM,-47.28 nmol/L
same,Androstenedione percentage change vs control,[1]; 0.5 μM,(−95%)
same,Corticosterone absolute change vs control,[1]; 0.5 μM,+143.8 nmol/l
same,Corticosterone percentage change vs control,[1]; 0.5 μM,(+174%*)
same,Cortisol absolute change vs control,[1]; 0.5 μM,-562.7 nmol/L
same,Cortisol percentage change vs control,[1]; 0.5 μM,(−87%)
same,DHEA absolute change vs control,[1]; 0.5 μM,<LLQ
same,DHEAS absolute change vs control,[1]; 0.5 μM,<LLQ
same,Prog absolute change vs control,[1]; 0.5 μM,+22.47 nmol/l
same,Prog percentage change vs control,[1]; 0.5 μM,(+1567%)
same,Testosterone absolute change vs control,[1]; 0.5 μM,-0.4475 nmol/L
same,Testosterone percentage change vs control,[1]; 0.5 μM,(−79%)
same,total change of steroids: increase,"[1]; CPA no. 2, basal, 0.1 μM",55.6 nmol/L
same,IC50,"[2]; Homo sapiens, 72 h",0.611 µM
"CC(=O)N1CCN(c2ccc(OC[C@@H]3CO[C@@](Cn4ccnc4)(c4ccc(Cl)cc4Cl)O3)cc2)CC1 (relative stereo) [levoketoconazole, 2S,4R cis-1-acetyl-4-[4-[[2-(2,4-dichlorophenyl)-2-(1H-imidazol-1-ylmethyl)-1,3-dioxolan-4-yl]methoxyl]phenyl]piperazine]",11-DOC absolute change vs control,[1]; 0.1 μM,+14.80 nmol/l
same,11-DOC percentage change vs control,[1]; 0.1 μM,(+5.4%)
same,17-OHP absolute change vs control,[1]; 0.1 μM,+5.125 nmol/l
same,17-OHP percentage change vs control,[1]; 0.1 μM,(+26%)
same,Androstenedione absolute change vs control,[1]; 0.1 μM,-36.68 nmol/L
same,Androstenedione percentage change vs control,[1]; 0.1 μM,−79%
same,Corticosterone absolute change vs control,[1]; 0.1 μM,+49.50 nmol/l
same,Corticosterone percentage change vs control,[1]; 0.1 μM,+54%
same,Cortisol absolute change vs control,[1]; 0.1 μM,-264.2 nmol/L
same,Cortisol percentage change vs control,[1]; 0.1 μM,−40%
same,DHEA absolute change vs control,[1]; 0.1 μM,<LLQ
same,DHEAS absolute change vs control,[1]; 0.1 μM,<LLQ
same,Prog absolute change vs control,[1]; 0.1 μM,+2.350 nmol/l
same,Prog percentage change vs control,[1]; 0.1 μM,(+138%)
same,Testosterone absolute change vs control,[1]; 0.1 μM,-0.3750 nmol/L
same,Testosterone percentage change vs control,[1]; 0.1 μM,−66%
same,Androstenedione absolute change vs control,"[1]; 0.1 μM, listed as LK",-36.68 nmol/L
same,Androstenedione percentage change vs control,"[1]; 0.1 μM, listed as LK",(−79%)
same,Corticosterone percentage change vs control,"[1]; 0.1 μM, listed as LK",(+54%)
same,Cortisol absolute change vs control,"[1]; 0.1 μM, listed as LK",-264.2 nmol/L
same,Cortisol percentage change vs control,"[1]; 0.1 μM, listed as LK",(−40%)
same,Testosterone absolute change vs control,"[1]; 0.1 μM, listed as LK",-0.3750 nmol/L
same,Testosterone percentage change vs control,"[1]; 0.1 μM, listed as LK",(−66%)
same,11-DOC absolute change vs control,[1]; 0.5 μM,-98.25 nmol/L
same,11-DOC percentage change vs control,[1]; 0.5 μM,(−36%)
same,17-OHP absolute change vs control,[1]; 0.5 μM,+21.28 nmol/l
same,17-OHP percentage change vs control,[1]; 0.5 μM,(+107%)
same,Androstenedione absolute change vs control,[1]; 0.5 μM,-45.18 nmol/L
same,Androstenedione percentage change vs control,[1]; 0.5 μM,(−97%)
same,Corticosterone absolute change vs control,[1]; 0.5 μM,+218.0 nmol/l
same,Corticosterone percentage change vs control,[1]; 0.5 μM,(+239%)
same,Cortisol absolute change vs control,[1]; 0.5 μM,-633.3 nmol/L
same,Cortisol percentage change vs control,[1]; 0.5 μM,(−96%)
same,DHEA absolute change vs control,[1]; 0.5 μM,<LLQ
same,DHEAS absolute change vs control,[1]; 0.5 μM,<LLQ
same,Prog absolute change vs control,[1]; 0.5 μM,+39.95 nmol/l
same,Prog percentage change vs control,[1]; 0.5 μM,(+2350%)
same,Testosterone absolute change vs control,[1]; 0.5 μM,-0.4725 nmol/L
same,Testosterone percentage change vs control,[1]; 0.5 μM,(−83%)
same,total change of steroids: decrease,"[1]; CPA no. 2, basal, 0.1 μM",229.5 nmol/L
same,IC50,[2],0.3 µM

# Reference: patent US12201632B2, “Levoketoconazole for treatment of congenital adrenal hyperplasia and primary aldosteronism” (Strongbridge Dublin Limited, priority 2018, dated 2025)
